Results reported in PMC10719761 (Journal of the American Chemical Society, 2023).

Legend:
[1] = cited from earlier work
[2] = Incubation with GSH at pH 7.4; type: physicochemical; settings: pH 7.4, within 4 h of incubation

SMILES	pKa [1]	corresponding GSH adduct produced [2]
N[C@@H](CCC(=O)N[C@@H](CS)C(=O)NCC(=O)O)C(=O)O [GSH, glutathione]	9.17	
COc1ccc2c(c1)CCCN2C(=O)CCl [Compound 11]		more than 50%
